Values quoted from earlier work, collected in patent publication US20100297147A1, “COMPOSITIONS AND METHODS FOR MODULATING TLR14 ACTIVITY” (WYETH, priority 2006, published 2010).

Test system: postnatal day 4 rat cerebellar granule neurons
Conditions: positive control, used at 10 uM

For `C[C@@H](N)[C@H]1CC[C@H](C(=O)Nc2ccncc2)CC1` [Y-27632], the “neurite outgrowth in the presence of myelin (known activity of control compound)” value is given as “known to induce neurite outgrowth in the presence of myelin”.
